“And” between values parts separate entries of the source, which are not always exact repeats. Identical values can stand only once.
Key:
[1] = Anticoagulant activity compared with heparin; settings: in vitro studies
HeLa cells = experiment: Cell culture experiment for testing inhibition of cell proliferation (daily co-incubation with platelets, serum-free); format: cell-based, human; settings: inhibitor 1.0 or 0.1 μg/mL co-incubated with platelets 30 minutes daily, serum-free Eagle's MEM
Experimental: In order to interrogate the effectiveness of PPS and DXS with respect to the inhibition of cell growth, the following experiment may be carried out.
Experiment duration: 5 days; Culture medium: Eagle's MEM without serum addition.
Test approach: PPS or DXS in 1.0, 0.1 μg/mL, and control (0 μg/mL final concentration).
HeLa cells are cultured from stocks: 10^4 cells/25 cm^2 flask, cell numbers are counted in a Fuchs-Rosenthal chamber. Platelets are prepared as described above.
Platelets and HeLa cells, or other tumor cell lines, either with or without inhibitor, are co-incubated for 30 minutes once every day, for 1 to 4 days. After co-incubation the cells are washed as described above and then allowed to rest under standard culture conditions. Typically 90×10^6 platelets are incubated per well per day.
On day 5, cells are washed with HBSS, photographed, trypsinized and the cell number counted as described above.

[2] = fraction of heparin activity; cited from earlier work
platelets = experiment: In vitro platelet aggregation compared with UFH; format: cell-based; settings: in vitro studies
HeLa cells, clone S3 = experiment: Adhesion experiment (platelet binding to cell surface), microscopic quantification; format: cell-based, human; settings: for Inhibition of platelet binding to growing cells: 0.1 ppm, FIG. 11, triplicate; for Inhibition of platelet binding to growing cells (in words): concentration not stated; for Reduction of platelet binding to the cells: 0.01 U/mL; for Inhibition of the binding of platelets to the HeLa cells: 0.1 U/mL, FIGS. 5 to 9
Experimental: The process for evaluating the platelet binding of growing cells involves the isolation of platelets from peripheral blood with two subsequent washes and cell sedimentation. These washes include a partial activation of the platelets, which is relevant for their interaction with Heparin. The incubation with the cells under investigation takes place under conditions in which full activation of platelets is approached, which would lead to lumps forming in the platelets. This would hinder analysis. Therefore, a low concentration of EDTA is added to the assay. The quantification of platelets and the calculation of the surface portions of cells and background is carried out using appropriate software, namely by macros in the open source program ImageJ.
Virus and mycoplasma free HeLa cells, clone S3, and human skin fibroblasts (NHDF) were purchased from Promo Cell, Heidelberg. Their human origin was confirmed by STR-Analysis. HeLa cells were maintained in Eagles MEM with 10% fetal calf serum. The NHDF were also maintained with 10% fetal calf serum in RPMI 1640. The passaging was performed by trypsin-EDTA treatment. The cell lines were maintained in either 25 ml bottles or in 3 cm plates.
The cells used for the experiment are cultured for 2 or 3 days in standard plates. At the start of the experiment about ⅓ of the plate surface should be covered with cells. The culture plates are subsequently washed with the buffer mixture described above and filled with further buffer mixture. For example, 30 mm culture dishes are filled with 2 ml 37° C. pre-warmed buffer mixture and 3×10^7 platelets obtained from the above-mentioned suspension.
The platelet-treated plates are incubated at 37° C. for 60 minutes. In this incubation, the pretreated platelets adhere to proliferating cells. However, cells of G0-phase bind little or none of the pre-treated platelets. This stage of incubation is when the substance to be tested is added to the cell culture buffer, in order to detect whether an effect on platelet binding is observed.
After the one hour incubation, the plates are washed at room temperature with the above mentioned buffer mixture until no free water floating platelets (generally 2 to 4 washes) are present and immediately fixed with glutaraldehyde (1% v/v in H2O).
The evaluation is carried out photographically. For this purpose, the image analysis program ImageJ is applied. The number of cell-bound platelets in relation to the recorded cell number of cells is determined. Additionally, the number of cell-bound platelets in relation to the cell-covered area may be determined.
Images are produced after the fixation in triplicate per plate. Phase contrast or brightfield 25×, 16× or 10× objectives are used. Image analysis is carried out according to SOP IJ. The open source program ImageJ may be used to for differential image subtraction and mask optimization. Subsequently, platelet number, cell number and proportional cell surface are determined by other IJ components.

Substance: Dextran sulfate sodium salt from Leuconostoc spec [DXS]
- Anticoagulation in comparison to UFH [1]: reduced anticoagulation
- Increase of cell number (proliferation) on day 5 (HeLa cells): increases to a reduced extent
- Anticoagulant activity relative to heparin [2]: much weaker
- Platelet aggregation in comparison to UFH (platelets): reduced platelet aggregation
- Inhibition of platelet binding to growing cells (HeLa cells, clone S3): roughly 75%
- Inhibition of platelet binding to growing cells (in words) (HeLa cells, clone S3): reproducible inhibition

Substance: dalteparin
- Reduction of platelet binding to the cells (HeLa cells, clone S3): significant reduction
- Inhibition of the binding of platelets to the HeLa cells (HeLa cells, clone S3): almost completely inhibited

Substance: danaparoid
- Difference in platelet binding between control and treatment (HeLa cells, clone S3; 1.25 U/mL, about 5 times the upper limit of the therapeutic range): no significant difference
- Cell-bound platelets per cell (HeLa cells, clone S3; 1.25 U/mL, control 15.9+/-7.7 platelets/cell): 13.2 platelets/cell
- Inhibition of platelet binding to growing cells (in words) (HeLa cells, clone S3): significantly lower effect
- Inhibition of platelet binding to growing cells (in words) (HeLa cells, clone S3; listed as Danaparoid): to a lower extent

Substance: dermatan sulfate
- Inhibition of platelet binding to growing cells (in words) (HeLa cells, clone S3): significantly less effective

Substance: enoxaparin
- Reduction of platelet binding to the cells (HeLa cells, clone S3): significant reduction
- Inhibition of the binding of platelets to the HeLa cells (HeLa cells, clone S3): almost completely inhibited

Substance: heparan sulfate
- Inhibition of platelet binding to growing cells (in words) (HeLa cells, clone S3): significantly less effective

Substance: pentosan polysulfate [PPS]
- Anticoagulation in comparison to UFH [1]: reduced anticoagulation
- Increase of cell number (proliferation) on day 5 (HeLa cells): increases to a reduced extent
- Anticoagulant activity relative to heparin [2]: less than 1/10 and much weaker and 1/15
- Platelet aggregation in comparison to UFH (platelets): reduced platelet aggregation
- Inhibition of platelet binding to growing cells (HeLa cells, clone S3): roughly 75%
- Inhibition of platelet binding to growing cells (in words) (HeLa cells, clone S3): reproducible inhibition

Substance: tinzaparin
- Reduction of platelet binding to the cells (HeLa cells, clone S3): significant reduction
- Inhibition of the binding of platelets to the HeLa cells (HeLa cells, clone S3): almost completely inhibited

Source: US10098906B2, “Modulation of the physical interaction between platelets and the cell surface effecting cell proliferation” (Cell Receptor GmbH, priority 2013, dated 2018)
